A short description of the experiment: Use of the topical neuropathy relief formulation by patients (example cases). It is filed as in vivo, human. As to conditions: Patient, severe debilitating neuropathy for six years; medications tried before the formulation; high doses of gabapentin. An excerpt:
The neuropathy relief formulation is applied in an amount sufficient to cover the affected area of clean dry skin. The neuropathy relief formulation is rubbed into the affected area until no cream remains visible on the surface. The formulation can be applied one, two, three or four times per day as needed for relief of symptoms.
The following example cases are from a few of the individuals who have been successfully treated with the claimed formulation

As for `NCC1(CC(=O)O)CCCCC1` [gabapentin], the “outcome of earlier medications for neuropathy” value is on record as “unsuccessful”. Consider `CCC(=O)C(CC(C)N(C)C)(c1ccccc1)c1ccccc1` (centres unmarked) [methadone], for which the “outcome of earlier medications for neuropathy” value is listed as “unsuccessful”.
